The text below walks through data of patent US12415799B2, “Indazole-fused cyclic compound” (Zhejiang Yangli Pharmaceutical Technology Co., Ltd., priority 2020, dated 2025).

The data set is described as follows: In vivo pharmacokinetics study in dogs. The arrangement: species or system beagle dogs. The source says:
Experimental purposes: To test the drug concentration in plasma of beagle dogs at different times after intravenous and intragastric administration of the test compound by LC/MS/MS using beagle dogs as the experimental animals. To study the pharmacokinetics of the test compound in beagle dogs in vivo and evaluate their pharmacokinetic characteristics.
Two healthy male and two female beagle dogs were divided into two groups according to the principle of similar body weight, with one male and one female in IV group and one male and one female in PO group. Animals were purchased from Beijing Marshall Biotechnology Co., Ltd.
IV group: Appropriate number of samples were weighed and prepared into 1 mg/mL solution respectively, and the mixture was stirred and ultrasonicated to reach a clear state, and the solvent was 10% HP-β-CD, and the pH value was adjusted to 5.74.
PO group: Appropriate amount of the solution prepared in IV group was diluted to 0.2 mg/mL with 10% HP-β-CD, and the pH value was adjusted to 5.8.
Administration: After fasting overnight, IV group was administered intravenously, and the dosage of the test compound was 1 mg/kg; PO group was administered intragastrically, and the dosage of the test compound was 2 mg/kg.
After the beagle dogs in the intravenous injection group were given the test compound respectively, and 200 μL of blood was collected from the peripheral vein at 0.0833, 0.25, 0.5, 1, 2, 4, 6, 8, 12 and 24 hours, and placed in a commercialized anticoagulant tube added with EDTA-K2 in advance. After intragastric administration of the test compound, 200 μL of blood was collected from the peripheral vein at 0.25, 0.5, 1, 2, 4, 6, 8, 12 and 24 hours, respectively, and placed in a commercialized anticoagulant tube added with EDTA-K2 in advance. After centrifugation (3,200 g, 4° C., 10 minutes), the plasma was collected, transferred to a pre-cooled centrifuge tube, quickly frozen in dry ice, and stored in a refrigerator at −60° C. or lower, until LC-MS/MS analysis. Animals were allowed to eat 4 hours after administration. LC/MS/MS method was used to determine the content of the test compound in the plasma of beagle dogs after intravenous and intragastric administration. The linear range of the method was 2.00 to 2000 nM.

A word on the Vdss: it is a proportionality between amount in the body and measured concentration, not a real space. A high value points to extensive tissue distribution. By Cmax is commonly meant the maximum level reached in the sampled fluid or tissue. As for `FCCCN1CC[C@H](Nc2cnc(C3=C(CC(F)(F)F)CCCc4c3ccc3[nH]nc(F)c43)cn2)C1` [Compound 11A], for the setting “i.v. 1 mg/kg”, the AUC0-last was 5.078 µM·h, the Cl was determined as 3.44 mL/min/kg, the T1/2 is on record as 23.1 h and the Vdss worked out at 6.60 L/kg. For the setting “p.o. 2 mg/kg”, this compound had an AUC0-last of 7.963 µM·h, a Cmax of 495 nM and a T1/2 of 19.2 h. Also, the F % (p.o. 2 mg/kg vs i.v. 1 mg/kg) worked out at 78.2%.
